Counter-ions that a name gives are not always drawn. Like-named read-outs stand apart in the source and are kept apart here.
Legend:
[1] = system: AML-OCI2 and AML-OCI3 cell lines; assay: Volumetric cell counting of AML cell lines treated with DR antagonists and agonists; format: cell-based, human; conditions: 72 h, serum-free conditions
Protocol: Volumetric Cell Counting. The number of AML-OCI2 and AML-OCI3 cells present after 72 h treatment with DR antagonists (FIG. 16b) and agonist (FIG. 16c-d) were counted by measuring the number of events within a fixed volume following the grating strategy defined by forward scatter and side scatter clustering, 7AAD− and Hoechst+.
Due to the bioavailability of dopamine in fetal bovine serum (FBS) (Little et al., 2002), serum-free conditions were employed to assess the role of DRs in AML.

[2] = system: v1H9-Oct4-GFP neoplastic hPSC; assay: Chemical screening of neoplastic hPSC reporter line (GFP / Hoechst, loss of pluripotency); format: cell-based, human; conditions: for hit in extended screen (loss of pluripotency): 2446 compound screen, reduced mean GFP intensity and cell count; for activity at 10 µM: read-out: Hoechst % residual activity (% RA)
Protocol: In Vitro Culture Platform for Normal and Neoplastic hPSCs. Chemical screens involved v1H9-Oct4-GFP cells seeded at 5,000 cells per well in mouse embryonic fibroblast conditioned media (MEFCM) supplemented with 8 ng/ml bFGF. 24 hours later the media was exchanged for MEFCM with compounds at 10 μM and 0.1% DMSO, 0.1% DMSO (−BMP4) or 100 ng/ml of BMP4 and 0.1% DMSO (+BMP4) for 48 hours before being exchanged with fresh media with compound for a further 24 h (total compound treatment time 72 h) prior to being fixed and prepared for automated imaging and plate reader analysis. Confluent H9 & fibroblast-derived iPSC were seeded at 10,000 cells per well in MEFCM supplemented with 8 ng/ml bFGF. 24 hours later the cells were treated with compounds at 10 μM and 0.1% DMSO, 0.1% DMSO (−BMP4) or 100 ng/ml of BMP4 and 0.1% DMSO (+BMP4). Fresh MEFCM supplemented with compounds was exchanged daily for 5 days. On day 5, hPSC's were fixed and prepared for automated imaging and plate reader analysis. See supplementary experimental procedures for further details.
Imaging Neoplastic hPSC. Cells were fixed in 2% paraformaldehyde and stained with 10 μg/mL Hoechst 33342 (Invitrogen) with a Combi Multidrop Dispenser (Thermo). For experiments that involved Oct4 immunocytochemistry, a monoclonal antibody for Oct4 (BD) was used along with an Alexa-Fluor-647 secondary (Invitrogen). Immunocytochemical staining was performed by a Janus automated liquid handler (Perkin Elmer). Images were acquired at 10× N.A with an Arrayscan HCS VTI Reader (Cellomics) by means of epi-fluorescence illumination and standard filter sets.
Image Analysis. Image analysis was performed using custom scripts in Acapella software (Perkin Elmer). Nuclear objects were segmented from the Hoechst signal. For neoplastic cell lines, object intensity analysis was performed on GFP positive cells only. For normal cell lines, the fraction of Alexa-Fluor-647-positive cells was quantified. Images and well-level data were stored and analysed in a Columbus Database (Perkin Elmer) and further data analysis, compounds registration and hit identification in ActivityBase (IDBS).
These Collections have been previously scrutinized in numerous other mammalian cell lines (Diallo et al., 2010; Shoemaker, 2006).

[3] = system: AML cell lines HL-60, OCI-AML2 and OCI-AML3
Protocol: All three lines are leukemic cell lines. HL-60 was derived from promyelocytic AML whereas MV 4-11 and OCI-AML3 are representative of AML. Each compound was incubated with the cells for 72 h. The control was DMSO (ie the vehicle used for the compound) for 72 h. Each condition had three replicates.
A series of dopamine receptor agonists, D3-antagonists, DR1 & 5-antagonists and multi-receptor antagonists were tested for cytotoxicity against three AML cell lines HL-60, OCI-AML2 and OCI-AML3. Testing was performed as set out in Example 1.

[4] = system: HL-60, MV4-11 and OCI-AML3 leukemic cell lines; assay: Normalized cell number of leukemic cell lines after 72 h incubation (Examples 1, 3); format: cell-based, human; conditions: 10 μM
Protocol: All three lines are leukemic cell lines. […] Each condition had three replicates.
The dopamine receptor antagonist and phenothiazine-related compound chlorpromazine was also investigated for effects on the AML cell lines HL-60, MV4-11 and OCI-AML3. Testing was performed as set out in Example 1.

[5] = system: AML patient blast cells; assay: Methylcellulose colony-forming assay, AML patient blast-CFU; format: cell-based, human
Protocol: (§1) AML/HPSC Cell Culture. AML cell lines, namely, OCI-AML2 (M4), OCI-AML3 (M4), HL-60 (M2) and MV-4-11(M5) were cultured in RPMI (Gibco) supplemented with 5% heated-inactivated FBS (HyClone). For DR agonist studies with R(+)-7-Hydroxy-DPAT hydrobromide (Sigma), serum-free conditions were employed instead due to the prevalence of dopamine in FBS (Little et al., 2002). AML patient blasts were cultured in IMDM supplemented with 5% heated inactivated FBS (HyClone), 5 ng/mL IL3 (R&D systems), 5×10^−5 M β-mercaptoethanol (Sigma) and BIT (StemCell Technologies). HSC media contained IMDM supplemented with 1% BSA (Sigma), 100 ng/mL SCF (R&D systems), 100 ng/mL Flt-3L (R&D systems) and 20 ng/mL TPO (R&D systems). Patient HSPC and AML samples were treated with compound or DMSO-vehicle (0.1%) for 24 h prior to CFU plating or xenotransplantation studies.
(§2) Methylcellulose Colony-Forming Assay. AML patient or CB lin− cells were cultured 24 hours in the presence of compound or DMSO-vehicle (0.1%) control. AML cells were plated at 50 000 cells/mL in Methocult GF H4434 (Stem Cell Technologies). CB lin− cells were plated at 1000 cells/mL in Methocult GF H4434 (Stem Cell Technologies). Colonies were scored after 14 days of culture using standard morphological criteria.

[6] = system: hematopoietic stem and progenitor cells (HSPC, CB lin-); assay: Methylcellulose colony-forming assay, HSPC (CB lin-)
Protocol: as §1, §2

[7] = system: AML LSCs (CD45+CD33+ blast engraftment); assay: Xenotransplantation of compound-treated AML cells into NSG mice; format: in vivo; conditions: 10 μM, 24 h ex vivo treatment
Protocol: Xenotransplantation Assays. NOD.Cg-Prkdc^scid II2rg^tm1Wjl/SzJ adult mice (NSG) were sub-lethally irradiated with 315 rads 24 hours prior transplantation. 0.8-1.0×10^7 AML MNCs or 1.5-1.8×10^5 CB lin-hematopoietic cells treated with compound or DMSO-vehicle for 24 h were injected via tail vein (IV). After 6-10 weeks, animals were culled, and the BM and spleen were analyzed for the presence of human cells by flow cytometry (LSRII, BD) and data was analyzed using FlowJo software (Tree Star Inc). For secondary HSPC transplants, equal number of engrafted human cells from CB lin− transplants were injected IV in adult irradiated NSG mice as described for primary transplants.
To delineate whether the inhibition of AML-blasts detected in vitro was due to the compounds affecting the neoplastic stem cell compartment, xenotransplantation studies (Dick, 2008) that functionally define LSCs and hematopoietic stem cells (HSCs) were conducted (FIG. 12).

[8] = system: neoplastic hPSCs (v1H9-Oct4-GFP); assay: Flow cytometry of Oct4 in neoplastic hPSCs; format: cell-based, human
[9] = system: p53 and p21 in neoplastic hPSCs; assay: p53 and p21 accumulation in neoplastic hPSCs; format: cell-based, human; conditions: 24 h; 10 μM etoposide, 10 μM thioridazine, BMP4
Excerpt: Antibodies. Antibodies used for immunocytochemistry were the following: Oct3/4 (BD Trunsduction Laboratories, cat#611203), Sox2 (R&D, cat#AF2018). To detect human hematopoietic cells, Pacific Blue-, PE-, APC- or FITC labeled anti-human CD45 was used (BD Biosciences). FITC anti-CD33, PE anti-CD13, FITC anti-CD41a, FITC anti-HLA DR, and PE anti-CD19 antibodies were obtained from BD Pharmingen. PE anti-CD14, PE anti-CD15 and PE anti-GlyA were acquired from Immunotech Beckman Coulter. To determine pluripotency, PE anti-SSEA3 (BD Biosciences) and PE- or AlexaFluor488 anti-Oct4 (BD Biosciences). Rabbit anti-human dopamine receptor antibodies; DRD1 (Cat#324390), DRD2 (Cat#324393), DRD3 (Cat#324402), DRD4 (Cat#324405) and DRD5 (Cat#324408) were sourced from EMD Chemical. Anti-rabbit Alexa-Fluor-488 (Molecular Probes) was used as the secondary antibody. Primary anti-p53 (Cat#2527) and anti-p21 (Cat#2947) rabbit IgG sourced from Cell Signaling Technology were used to stain fixed and permeabilized cells. Anti-rabbit alexa-Fluor-546 (Molecular Probes) was used as the secondary antibody.

[10] = Homo sapiens, 10 μM, 590 compound screen

Molecule: Br.CCCN(CCC)[C@@H]1CCc2ccc(O)cc2C1 [7OH-DPAT, R(+)-7-Hydroxy-DPAT hydrobromide]
- number of AML cells [1]: increased the number of AML cells

Molecule: OCCN1CCN(CCCN2c3ccccc3Sc3ccc(C(F)(F)F)cc32)CC1 [fluphenazine]
- hit in extended screen (loss of pluripotency) [2]: hits

Molecule: CN(C)CCCN1c2ccccc2Sc2ccc(Cl)cc21 [chlorpromazine, Chlorpromazine hydrochloride]
- cytotoxicity of AML cell lines [3]: significant effect
- cell count ([3]; 72 h, relative to control): eradicate the AML cell lines
- normalized cell number / toxicity [4]: toxic
- number of AML cells [1]: reduced the number of AML cells

Molecule: CC[C@@H](C(=O)[C@@H](C)[C@@H](O)[C@H](C)[C@@H]1O[C@@H]([C@@H](CC)C(=O)O)CC[C@@H]1C)[C@H]1O[C@]2(C=C[C@@H](O)[C@]3(CC[C@@](C)([C@H]4CC[C@](O)(CC)[C@H](C)O4)O3)O2)[C@H](C)C[C@@H]1C [salinomycin]
- AML-blast CFU potential ([5]; 1 μM): reduced
- AML-blast CFU potential ([5]; 10 μM): reduced
- HSPC CFU potential [6]: reduced

Molecule: OC(c1cc(C(F)(F)F)nc2c(C(F)(F)F)cccc12)C1CCCCN1 (stereo not shown) [mefloquine]
- AML-blast CFU formation ([5]; dose not stated in the sentence (0.1, 1, 10 μM tested)): reduced
- leukemic disease-initiating AML LSC capacity [7]: ineffective
- cell number [8]: reductions
- levels of Oct4 [8]: reductions
- activity at 10 µM [2, 10]: > 30%
- EC50 ([2]; Homo sapiens, dose response, v1H9-Oct4-GFP, read-out: EC50 (reduction in GFP intensity)): < 10 µM

Molecule: Nc1ccn([C@@H]2O[C@H](CO)[C@@H](O)[C@@H]2O)c(=O)n1 [AraC, Arabinofuranosyl Cytidine]
- effective concentration (ECArac) ([5]; concentration that reduced AML-blast-CFU while retaining HSPC function, single drug): 100 nM

Molecule: CNC1CC(c2ccc(Cl)c(Cl)c2)c2ccccc21 (stereo not shown) [indatraline]
- activity at 10 µM ([2]; Homo sapiens): > 30%

Molecule: COc1cc([C@@H]2c3cc4c(cc3[C@@H](O[C@@H]3O[C@@H]5CO[C@@H](C)O[C@H]5[C@H](O)[C@H]3O)[C@H]3COC(=O)[C@H]23)OCO4)cc(OC)c1O [etoposide]
- accumulation of cell stress marker p53 [9]: high levels
- accumulation of p21 [9]: high levels

Molecule: Cn1cnc([N+](=O)[O-])c1Sc1ncnc2nc[nH]c12 [azathioprine]
- activity at 10 µM [2, 10]: > 30%

Molecule: CN1CCN(CCCN2c3ccccc3Sc3ccc(Cl)cc32)CC1 [prochlorperazine]
- hit in extended screen (loss of pluripotency) [2]: hits

Molecule: Oc1cc2c(cc1O)[C@@H](c1ccccc1)CNCC2 [SKF38393, (R)-(+)-SKF-38393 hydrochloride]
- number of AML cells [1]: significant reduction

Molecule: CN1CCN(C2=Nc3cc(Cl)ccc3Nc3ccccc32)CC1 [clozapine, Clozapine]
- cytotoxicity of AML cell lines [3]: significant effect

B1: BMP4: differentiation control, 100 ng/ml of BMP4 (protein, UniProt P12644 293-408, looked up)
Bone morphogenetic protein 4: SPKHHSQRARKKNKNCRRHSLYVDFSDVGWNDWIVAPPGYQAFYCHGDCPFPLADHLNSTNHAIVQTLVNSVNSSIPKACCVPTELSAISMLYLDEYDKVVLKNYQEMVVEGCGCR
- accumulation of cell stress marker p53 [9]: no accumulation
- accumulation of p21 [9]: no accumulation
